Test: Stability of tilidine mesylate in solid form, in combination with solid additives

## tilidine mesylate
  decomposition in the solid form (stability): virtually does not undergo any decomposition

— US6579536B1, “Sustained-release pharmaceutical preparation containing tilidine mesylate as active ingredient” (Hexal AG, priority 1998, dated 2003)
